Calls of active or inactive are those of the source.
Tests used:
Cytochrome P450 2C9 = Cytochrome P450 2C9 (Homo sapiens, UniProt P11712)
Cytochrome P450 2C19 = Cytochrome P450 2C19 (Homo sapiens, UniProt P33261); assay: Cytochrome panel assay with activity outcomes. Panel member name: p450-cyp2c19 Compounds with AC50 equal or less than 10 uM are considered active; type: functional; details: read-out: AC50
Cytochrome P450 1A2 = biological target: T1, Cytochrome P450 1A2 (Homo sapiens, UniProt P05177);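 also: PubChem cytochrome P450 panel assay, CYP1A2 panel member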
T1 sequence (P05177 whole entry): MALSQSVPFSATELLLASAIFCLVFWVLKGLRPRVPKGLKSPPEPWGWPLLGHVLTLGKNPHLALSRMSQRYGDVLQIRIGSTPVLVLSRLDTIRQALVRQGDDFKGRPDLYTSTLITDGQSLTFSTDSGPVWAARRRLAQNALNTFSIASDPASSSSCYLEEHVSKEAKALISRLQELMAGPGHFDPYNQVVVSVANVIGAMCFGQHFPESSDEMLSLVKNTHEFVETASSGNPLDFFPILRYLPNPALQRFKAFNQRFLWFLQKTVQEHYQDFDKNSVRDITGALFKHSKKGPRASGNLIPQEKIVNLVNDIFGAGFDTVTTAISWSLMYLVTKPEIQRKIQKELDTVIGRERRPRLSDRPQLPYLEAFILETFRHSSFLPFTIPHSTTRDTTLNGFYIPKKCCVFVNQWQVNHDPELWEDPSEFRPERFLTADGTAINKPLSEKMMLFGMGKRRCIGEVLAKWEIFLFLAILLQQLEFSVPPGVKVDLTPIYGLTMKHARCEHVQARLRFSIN

Cytochrome P450 3A4 = Cytochrome P450 3A4 (Homo sapiens, UniProt P08684);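 also: CYP3A4 tested as one member of a cytochrome P450 panel screen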
[1] = biological target: T2, Heat shock factor protein 1 (Mus musculus, UniProt P38532); assay: HSF1 potentiators in luciferase reporter cells, confirmation, cell-based, NIH3T3, luminescence, dose retest (AID 435004); type: functional;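 also: stress induced by proteasome inhibitor MG132 added 30 min after compound; luciferase reporter driven by HSF1 response element in NIH3T3 cells; actives raise luminescence as potentiators of the MG132 stress response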
T2 sequence (P38532 whole entry): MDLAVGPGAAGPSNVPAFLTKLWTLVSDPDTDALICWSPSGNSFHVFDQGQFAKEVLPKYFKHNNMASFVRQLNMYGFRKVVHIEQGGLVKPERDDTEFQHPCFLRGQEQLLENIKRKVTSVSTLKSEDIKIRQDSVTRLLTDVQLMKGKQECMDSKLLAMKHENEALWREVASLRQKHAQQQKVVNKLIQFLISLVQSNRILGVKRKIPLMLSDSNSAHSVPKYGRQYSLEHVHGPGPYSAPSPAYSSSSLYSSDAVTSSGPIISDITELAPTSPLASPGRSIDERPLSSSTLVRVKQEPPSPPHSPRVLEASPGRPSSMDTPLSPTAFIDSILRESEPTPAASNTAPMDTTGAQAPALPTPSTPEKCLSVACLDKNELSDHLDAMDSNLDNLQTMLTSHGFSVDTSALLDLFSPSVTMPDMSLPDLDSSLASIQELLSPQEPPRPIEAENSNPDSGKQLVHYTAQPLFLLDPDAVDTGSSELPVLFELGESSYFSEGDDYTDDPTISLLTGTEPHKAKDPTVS

[2] = biological target: T3, Zinc finger protein mex-5 (Caenorhabditis elegans, UniProt Q9XUB2); assay: MEX-5/TCR-2 RNA interaction inhibitors, dose response, biochemical, C. elegans, fluorescence polarization (AID 1960)
T3 sequence (Q9XUB2 whole entry): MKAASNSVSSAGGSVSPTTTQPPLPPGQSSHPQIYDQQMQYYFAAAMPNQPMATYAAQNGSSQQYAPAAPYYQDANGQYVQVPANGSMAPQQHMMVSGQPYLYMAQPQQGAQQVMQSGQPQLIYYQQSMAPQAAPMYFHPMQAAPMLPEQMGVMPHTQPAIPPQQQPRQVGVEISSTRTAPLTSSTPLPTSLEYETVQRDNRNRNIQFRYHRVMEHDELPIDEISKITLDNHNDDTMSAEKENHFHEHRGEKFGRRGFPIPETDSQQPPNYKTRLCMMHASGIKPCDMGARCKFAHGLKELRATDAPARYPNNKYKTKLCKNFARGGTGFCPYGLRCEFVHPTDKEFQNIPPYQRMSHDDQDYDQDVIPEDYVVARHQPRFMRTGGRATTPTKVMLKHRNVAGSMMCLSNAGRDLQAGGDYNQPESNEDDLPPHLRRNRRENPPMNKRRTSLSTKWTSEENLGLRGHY

[3] = system: Streptococcus sp. 'group A'; assay: growth inhibition of control SK(-) GAS strain, dose response, counter-screen for streptokinase expression inhibitor project, luminescence, kanamycin, BacTiterGlo, confirmation (AID 1900); type: functional, organism-based
[4] = biological target: T4, RNA-binding protein pos-1 (Caenorhabditis elegans, UniProt G5EF15); assay: inhibitors of POS-1/mex-3 RNA binding, dose response, biochemical, fluorescence polarization (AID 1964);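 also: purified POS-1 fused to maltose binding protein made in E. coli; potency of compounds blocking POS-1 binding to fluorescent RNA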
T4 sequence (G5EF15 whole entry): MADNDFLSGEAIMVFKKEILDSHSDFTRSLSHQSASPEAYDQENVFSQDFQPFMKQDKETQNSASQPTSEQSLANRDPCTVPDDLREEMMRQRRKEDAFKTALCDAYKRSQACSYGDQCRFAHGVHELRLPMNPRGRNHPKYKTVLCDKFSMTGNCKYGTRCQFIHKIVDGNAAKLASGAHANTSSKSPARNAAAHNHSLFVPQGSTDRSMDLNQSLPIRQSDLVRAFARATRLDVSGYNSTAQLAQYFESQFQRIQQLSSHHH

Streptococcus = assay: Group A Streptococcus viability loss, dose response, counter-screen for streptokinase expression inhibitor project, luminescence, BacTiterGlo (AID 1915); type: functional, organism-based;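 also: potency for reduction of bacterial viability or growth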
Streptokinase A = biological target: T5, Streptokinase A (Streptococcus pyogenes serotype M1, UniProt P10520); assay: S. pyogenes streptokinase expression inhibitors, potency, dose response, plasminogen activation absorbance, OD405 (AID 1914); type: functional, Streptococcus pyogenes M1 GAS;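 also: secreted streptokinase activity via plasminogen activation per viability signal from cell pellet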
T5 sequence (P10520 whole entry): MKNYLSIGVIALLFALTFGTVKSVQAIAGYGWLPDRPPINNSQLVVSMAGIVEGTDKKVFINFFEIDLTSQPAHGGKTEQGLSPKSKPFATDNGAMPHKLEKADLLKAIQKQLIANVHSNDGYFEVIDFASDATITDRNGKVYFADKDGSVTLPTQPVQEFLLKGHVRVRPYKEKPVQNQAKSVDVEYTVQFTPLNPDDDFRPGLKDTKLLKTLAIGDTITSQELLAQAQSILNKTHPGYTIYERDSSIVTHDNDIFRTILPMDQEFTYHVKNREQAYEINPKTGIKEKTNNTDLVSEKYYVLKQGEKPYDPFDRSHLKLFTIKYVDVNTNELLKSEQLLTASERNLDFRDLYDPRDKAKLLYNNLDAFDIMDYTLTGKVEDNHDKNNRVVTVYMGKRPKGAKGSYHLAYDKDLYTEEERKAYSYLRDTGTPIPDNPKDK

Sequence of Cytochrome P450 2C9 (P11712 whole entry): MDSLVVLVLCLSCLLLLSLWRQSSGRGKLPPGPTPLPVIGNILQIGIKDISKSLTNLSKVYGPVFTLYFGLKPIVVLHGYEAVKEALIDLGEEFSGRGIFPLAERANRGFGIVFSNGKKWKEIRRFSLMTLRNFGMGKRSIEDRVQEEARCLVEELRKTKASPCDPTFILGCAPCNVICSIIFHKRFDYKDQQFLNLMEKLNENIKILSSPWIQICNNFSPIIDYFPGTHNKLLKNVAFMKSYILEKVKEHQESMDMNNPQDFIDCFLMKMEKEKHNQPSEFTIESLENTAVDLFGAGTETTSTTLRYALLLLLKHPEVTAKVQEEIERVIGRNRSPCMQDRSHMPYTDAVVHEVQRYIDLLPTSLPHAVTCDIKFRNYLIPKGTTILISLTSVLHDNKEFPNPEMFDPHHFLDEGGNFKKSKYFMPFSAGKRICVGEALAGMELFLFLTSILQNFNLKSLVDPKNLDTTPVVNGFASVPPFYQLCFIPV
Sequence of Cytochrome P450 2C19 (P33261 whole entry): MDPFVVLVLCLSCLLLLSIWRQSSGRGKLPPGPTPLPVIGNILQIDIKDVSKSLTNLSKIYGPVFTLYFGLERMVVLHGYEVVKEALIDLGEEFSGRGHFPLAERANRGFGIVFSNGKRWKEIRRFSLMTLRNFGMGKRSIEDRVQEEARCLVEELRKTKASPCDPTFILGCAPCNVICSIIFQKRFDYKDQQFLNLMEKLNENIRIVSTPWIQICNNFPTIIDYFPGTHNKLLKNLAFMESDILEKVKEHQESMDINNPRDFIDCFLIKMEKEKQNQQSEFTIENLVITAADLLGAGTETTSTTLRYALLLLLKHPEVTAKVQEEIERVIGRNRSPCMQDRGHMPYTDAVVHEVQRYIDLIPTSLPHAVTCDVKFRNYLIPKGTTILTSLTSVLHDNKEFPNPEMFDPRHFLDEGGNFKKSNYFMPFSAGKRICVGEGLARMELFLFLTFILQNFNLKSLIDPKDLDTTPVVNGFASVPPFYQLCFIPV
Sequence of Cytochrome P450 3A4 (P08684 whole entry): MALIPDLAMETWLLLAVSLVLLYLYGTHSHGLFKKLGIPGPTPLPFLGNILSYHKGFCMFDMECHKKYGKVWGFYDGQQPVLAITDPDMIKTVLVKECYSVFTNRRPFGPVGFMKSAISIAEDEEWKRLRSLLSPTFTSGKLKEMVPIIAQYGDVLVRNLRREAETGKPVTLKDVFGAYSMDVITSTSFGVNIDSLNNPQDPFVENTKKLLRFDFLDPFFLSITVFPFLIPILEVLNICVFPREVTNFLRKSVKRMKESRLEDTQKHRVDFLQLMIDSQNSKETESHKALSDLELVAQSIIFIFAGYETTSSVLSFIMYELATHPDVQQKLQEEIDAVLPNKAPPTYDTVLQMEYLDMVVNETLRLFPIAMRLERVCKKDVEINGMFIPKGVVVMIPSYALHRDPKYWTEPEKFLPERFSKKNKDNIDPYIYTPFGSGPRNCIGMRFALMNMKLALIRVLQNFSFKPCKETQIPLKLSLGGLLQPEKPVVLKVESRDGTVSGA

With `Cc1nn(C)cc1C(=O)NN=C(S)Nc1ccccc1` the AC50 (Cytochrome P450 2C9) was 39.8 µM (inconclusive), the AC50 (Cytochrome P450 2C19) was 22.4 µM (inconclusive) and the AC50 (Cytochrome P450 1A2) was 15.8 µM (inconclusive).

In the case of `O=c1c(-c2ccc(F)c(F)c2)nc2cncnc2n1C1CC1`, the AC50 (Cytochrome P450 3A4) was 12.6 µM (inconclusive).

With `Cc1ccc(C(c2nnnn2CC2CCCO2)N2CCN(C(=O)c3ccco3)CC2)cc1` (stereo not given) the AC50 (Cytochrome P450 2C9) was 25.1 µM (inconclusive).

With `COc1ccc(NS(=O)(=O)c2ccc(NC(=O)c3cnn4c(C(F)F)cc(-c5ccc(C)cc5)nc34)cc2)cc1` the AC50 (Cytochrome P450 2C9) was 3.55 µM (inconclusive), the AC50 (Cytochrome P450 2C19) was 2.24 µM (inconclusive) and the AC50 (Cytochrome P450 1A2) was 0.891 µM (inconclusive).

`COC(=O)c1cc2c(ccn2-c2ccc(F)cc2)n1Cc1ccc(C#N)cc1` was tested, and the EC50 [1] was > 260 µM (inactive).

In the case of `Cc1cc(C)c(S(=O)(=O)N2CCCC(C(=O)NCCC3=CCCCC3)C2)c(C)c1` (stereo not given), the EC50 [1] was > 260 µM (inactive).

In the case of `CC(C)N1CCc2c(sc(NC(=O)c3ccc(S(=O)(=O)N(C)CC4CCCO4)cc3)c2C(N)=O)C1` (stereo not given), the EC50 [2] was > 300 µM (not active), the EC50 [3] was > 150 µM (not active) and the EC50 [4] was 203 µM (active). The EC50 (Streptococcus) was > 150 µM (not active) and the EC50 (Streptokinase A) was > 150 µM (not active).

`O=C(c1cc(C(F)(F)F)cc(C(F)(F)F)c1)N1CCC2(CC1)CN(Cc1ccncc1)C2` was tested, and the AC50 (Cytochrome P450 3A4) was 15.8 µM (inconclusive) and the AC50 (Cytochrome P450 1A2) was 20 µM (inconclusive).

`CC(=C\c1ccco1)/C=C1/SC(=S)N(CC(=O)O)C1=O` was tested, and the EC50 [2] was > 300 µM (not active) and the EC50 [4] was > 300 µM (not active).

For `COc1cccc(-c2cc(C(F)(F)F)nc(N3CCCCC3)n2)c1`, the AC50 (Cytochrome P450 2C9) was 0.355 µM (inconclusive), the EC50 [3] was 5.13 µM (active) and the AC50 (Cytochrome P450 3A4) was 20 µM (inconclusive). For the same compound, the EC50 (Streptococcus) was 19 µM (active) and the EC50 (Streptokinase A) was 4.92 µM (active).

With `COc1ccc(C2Nc3ccccc3C(=O)N2Cc2ccco2)cc1COc1ccc(F)cc1` (stereo not given) the EC50 [1] was > 260 µM (inactive).

`Cn1cc(-c2nc3cnc(N4CCNCC4)nc3n(-c3ccccc3)c2=O)c2ccccc21` was tested, and the AC50 (Cytochrome P450 3A4) was 20 µM (inconclusive).

With `COc1ccc(N2CCN(Cc3nc4c(c(=O)n(C)c(=O)n4C)n3CC(C)=O)CC2)cc1` the AC50 (Cytochrome P450 2C9) was 28.2 µM (inconclusive).

`COc1ccc(Nc2nnc(-c3ccc(N4CCOCC4)c([N+](=O)[O-])c3)c3ccccc23)cc1` was tested, and the AC50 (Cytochrome P450 2C19) was 15.8 µM (inconclusive) and the AC50 (Cytochrome P450 3A4) was 7.94 µM (inconclusive).

`N#CCc1c(C#N)c(N)nc(N2CCN(S(=O)(=O)c3ccccc3F)CC2)c1C#N` was tested, and the EC50 [1] was > 260 µM (inactive).

With `Cc1c(Nc2cc(N3CCCC(C)C3)c3nonc3c2[N+](=O)[O-])c(=O)n(-c2ccccc2)n1C` (stereo not given) the AC50 (Cytochrome P450 2C9) was 2.51 µM (inconclusive).

`c1ccc(Nc2c(-c3ccco3)nc3ccccn23)cc1` was tested, and the EC50 [1] was 151 µM (active).

With `C[C@H]1O[C@@H](CC(=O)O)Cc2c(O)c3c(c(O)c21)C(=O)C=C(C1=CC(=O)c2c(O)c4c(c(O)c2C1=O)C[C@H](CC(=O)O)O[C@@H]4C)C3=O` the AC50 (Cytochrome P450 2C9) was 7.94 µM (inconclusive).

For `O=C(O)CN1C(=O)/C(=C/c2ccccc2Br)Oc2ccccc21`, the EC50 [1] was > 260 µM (inactive).

In the case of `COc1ccc(CCN2C(=O)NC(=O)/C(=C\Nc3ccc(NC(C)=O)cc3)C2=O)cc1OC`, the EC50 [2] was > 300 µM (not active) and the EC50 [4] was > 300 µM (not active).

For `C[C@H]1COC(=O)[C@H](Cc2ccccc2)NC(=O)[C@@H](C)COC(=O)[C@H](Cc2ccccc2)NC1=O`, the AC50 (Cytochrome P450 3A4) was 3.98 µM (inconclusive).

In the case of `COc1ccc(S(=O)(=O)Nc2ccccc2C(F)(F)F)cc1`, the EC50 [1] was > 260 µM (inactive).

For `COC(=O)C1=C(C)N(c2ccc(Cl)cc2)/C(=C/c2cccs2)C1=O`, the EC50 [2] was > 300 µM (not active) and the EC50 [4] was > 300 µM (not active).

In the case of `COCCn1c(=O)c(-c2cc(F)cc(F)c2)nc2cnc(OC)nc21`, the AC50 (Cytochrome P450 2C9) was 39.8 µM (inconclusive) and the AC50 (Cytochrome P450 2C19) was 39.8 µM (inconclusive).

In the case of `CCOC(=O)C1CCN(C(=O)c2ccc3c(Cl)c4c(nc3c2)CCCC4)CC1`, the EC50 [1] was 15.8 µM (active).

`O=C(Nc1cccn2ncnc12)C(F)(F)F` was tested, and the EC50 [1] was > 260 µM (inactive).

`CN1CC[C@@]2(CCCN(C(=O)c3ccncc3)C2)C1` was tested, and the AC50 (Cytochrome P450 3A4) was 31.6 µM (inconclusive).

In the case of `CC1(C)Oc2cc(N)c([N+](=O)[O-])cc2O1`, the AC50 (Cytochrome P450 2C9) was 35.5 µM (inconclusive).

For `Cc1ccccc1N(C(=O)Cc1cccs1)C(C(=O)NCC1CCCO1)c1cccnc1` (stereo not given), the AC50 (Cytochrome P450 2C9) was 22.4 µM (inconclusive), the AC50 (Cytochrome P450 2C19) was 28.2 µM (inconclusive) and the AC50 (Cytochrome P450 3A4) was 1 µM (inconclusive).

For `CCCCN1C(=O)NC(=O)/C(=C\NCCN2CCCCC2)C1=O`, the AC50 (Cytochrome P450 3A4) was 20 µM (inconclusive).

`Cc1nn(-c2ccccc2)c2sc(C(=O)N(Cc3ccco3)C(C)C(=O)NC(C)(C)C)cc12` (stereo not given) was tested, and the EC50 [1] was > 260 µM (inactive).

In the case of `COc1ccc2c(c1)c(C(=O)CN1CCCCC1)c(C)n2C`, the EC50 [1] was > 260 µM (inactive).

`Cc1nc2ncnn2c(C)c1CCC(=O)NCc1ccccc1` was tested, and the AC50 (Cytochrome P450 3A4) was 17.8 µM (inconclusive).

For `CN(C)c1ccc(CNC(=O)c2ccc(CNc3c(N4CCCCC4)c(=O)c3=O)cc2)cc1`, the EC50 [1] was > 260 µM (inactive).

For `O=C(c1[nH]o[n+](=O)c1C(=O)c1csc2ccccc12)c1csc2ccccc12`, the AC50 (Cytochrome P450 3A4) was 3.16 µM (inconclusive).

`O=C(O)c1cc2cc(Cc3cccnc3)ccc2o1` was tested, and the AC50 (Cytochrome P450 3A4) was 25.1 µM (inconclusive).

In the case of `Oc1ccc([C@@H]2CNCc3sccc32)cc1O`, the AC50 (Cytochrome P450 3A4) was 15.8 µM (inconclusive).

For `NC(=O)CI` [IODOACETAMIDE], the AC50 (Cytochrome P450 2C9) was 39.8 µM (inconclusive), the AC50 (Cytochrome P450 2C19) was 39.8 µM (inconclusive) and the AC50 (Cytochrome P450 1A2) was 31.6 µM (inconclusive).

Reference: ChEMBL document CHEMBL1201862, “PubChem BioAssay data set” (2004)
